{"source": "patent US9279806B2", "about": "“Water-soluble AIE luminogens for monitoring and retardation of fibrillation of amyloid proteins” (THE HONG KONG UNIVERSITY OF SCIENCE AND TECHNOLOGY, priority 2005, dated 2016)", "key": {"HSA": {"target": "HSA (Homo sapiens, UniProt P02768)", "sequence (P02768 25-609)": "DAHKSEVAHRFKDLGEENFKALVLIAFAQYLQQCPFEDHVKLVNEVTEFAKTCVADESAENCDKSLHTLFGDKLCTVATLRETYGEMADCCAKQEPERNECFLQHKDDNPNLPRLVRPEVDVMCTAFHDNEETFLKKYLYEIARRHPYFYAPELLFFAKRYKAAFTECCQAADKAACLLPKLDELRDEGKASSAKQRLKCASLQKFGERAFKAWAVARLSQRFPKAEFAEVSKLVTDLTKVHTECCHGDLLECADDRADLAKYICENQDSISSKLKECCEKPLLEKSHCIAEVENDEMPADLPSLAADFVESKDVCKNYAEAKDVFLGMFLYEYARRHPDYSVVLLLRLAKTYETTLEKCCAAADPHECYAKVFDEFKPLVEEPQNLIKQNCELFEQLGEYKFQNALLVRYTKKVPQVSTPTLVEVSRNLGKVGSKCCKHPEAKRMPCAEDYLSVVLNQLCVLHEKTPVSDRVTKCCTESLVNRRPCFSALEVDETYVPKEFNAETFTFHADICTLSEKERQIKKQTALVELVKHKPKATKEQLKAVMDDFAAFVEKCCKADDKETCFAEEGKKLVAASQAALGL", "conditions": "cited from earlier work"}, "[1]": {"assay": "Photophysical properties in solution and aggregate states (AIE effect)", "format": "physicochemical", "conditions": "for Fluorescence quantum yield (ΦF), molecularly dissolved: AN solution / AN-water mixtures with low water fraction; for Fluorescence quantum yield (ΦF), aggregated: AN/water mixture with 99% water", "description": "Changes in the φF values of TBEPE in the AN/water mixtures with different water contents further confirm its AIE nature. […] Afterward the φF value starts to increase swiftly. In the AN/water mixtures with lower water fractions, TBEPE is genuinely dissolved, while in the aqueous mixtures with higher water fractions (>60%), the dye molecules cluster together due to the deterioration in the solvating power of the mixture. When the water fraction is increased to 99 vol %, the aφF value is increased to −18%, which is ˜35-fold higher than that in the pure AN solvent. The absolute φF values of the aggregates should be much higher than the relative ones given in FIG. 26A, if the light scattering caused by the Mie effect of the nanoaggregatcs is taken into consideration. […]\nDilute solutions of TPEs 1 and 2 in AN are practically non-luminescent. Addition of non-solvent water into the AN solutions can turn on the emissions of the dyes. From the molecular solution in AN to the aggregate suspension in an AN-water mixture (1:99 by volume), the fluorescent intensity of TPE 1 at 476 nm is increased by −240 fold (FIG. 11A). Its absorption maximum shifts from 310 nm in the solution to 330 nm in the suspension. The excitation maximum of TPE 1 locates at 330 nm, coinciding well with its absorption maximum. […] Evidently, the emission of TPE 1 is induced by the aggregate formation, or in other words, TPE 1 is AIE-active.\nThe ΦF value of TPE 1 starts to increase when the water fraction is increased to ˜50%, at which the solvating power of the mixture is decreased to such an extent that the dye molecules begin to aggregate. The ΦF value reaches ˜20% at a water content of 99%, which is ˜40-fold higher than that of its AN solution. […] Their emissions in the mixtures remain as faint as those in the water solutions."}, "Solubility": {"assay": "Solubility", "format": "physicochemical"}, "[2]": {"tested_on": "ctDNA/RNA from torula yeast/BSA", "assay": "Fluorescence increments / binding isotherm with ctDNA, RNA and BSA", "conditions": "10 μg/ml ctDNA or RNA, dye 5 μM", "procedure": "FIG. 8 illustrates increments of fluorescence of TPE-C2N^+ (8), N+C2-TPE-C2N^+ (9), TPE-C4N^+ (10), N+C4-TPE-C4N^+ (11) when binding with 10 μg/ml ctDNA/10 μg/ml RNA diethylaminoethanol (DEAE) salt from torula yeast/10 μg/ml RNA from torula yeast in buffer solution pH=7. Concentration of dyes: 5 μM; excitation wavelength: 350 nm. The four cationic TPE derivatives display larger FL enhancement in the presence of DNA than that of RNA.\nFIG. 9 illustrates the binding isotherm of N+C2-TPE-C2N^+ (5 μM) to ctDNA/RNA from torula yeast/BSA (plot of the fluorescence intensity at 470 nm for ctDNA/RNA, and at 467 nm for BSA) in aqueous phosphate buffer (pH=7.0)."}, "[3]": {"assay": "Photophysical properties in solution and aggregate states (AIE effect)", "format": "physicochemical", "conditions": "for Emission maximum wavelength (λem): excitation 350 nm"}, "[4]": {"target": "Bovine serum albumin (BSA) (Bos taurus, UniProt P02769)", "sequence (P02769 25-607)": "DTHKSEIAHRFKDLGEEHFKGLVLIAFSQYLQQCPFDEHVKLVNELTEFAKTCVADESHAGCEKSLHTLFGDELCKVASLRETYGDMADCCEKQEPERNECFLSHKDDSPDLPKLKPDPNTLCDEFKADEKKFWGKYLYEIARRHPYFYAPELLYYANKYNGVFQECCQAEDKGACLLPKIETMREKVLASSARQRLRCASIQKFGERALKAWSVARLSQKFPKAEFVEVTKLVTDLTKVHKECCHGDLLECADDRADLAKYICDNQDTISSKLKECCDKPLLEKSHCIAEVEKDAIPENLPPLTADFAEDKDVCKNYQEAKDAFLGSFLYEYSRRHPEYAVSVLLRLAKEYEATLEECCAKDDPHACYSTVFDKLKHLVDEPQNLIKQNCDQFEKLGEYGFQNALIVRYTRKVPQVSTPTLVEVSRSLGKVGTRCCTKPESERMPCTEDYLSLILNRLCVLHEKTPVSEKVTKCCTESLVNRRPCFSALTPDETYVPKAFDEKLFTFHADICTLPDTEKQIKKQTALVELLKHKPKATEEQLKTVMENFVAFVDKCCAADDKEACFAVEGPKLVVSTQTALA", "assay": "Fluorimetric titration of BSA to polyenes", "format": "binding", "procedure": "(§1) Fluorimetric titration of biomacromolecules to polyenes Bovine serum albumin (BSA) and calf thymus DNA (ctDNA) were selected as model proteins and DNA. BSA was dissolved in a pH 7.0 phosphate buffer solution (1.0 mg/ml). DNA was dissolved in deionized water (1.0 mg/ml) and filtered through a 0.45 μm filter. The actual concentration (in nucleic base) was determined by UV photometry using the extinction coefficient ε260=6600 M^−1 cm^−1.\n(§2) Stock solutions of polyenes were 5×10^−4 M in water. Fluorescence titration was carried out by sequentially adding 100 μl aliquots of DNA or BSA solutions to a 100 μl stock solution of polyenes, followed by adding an aqueous phosphate buffer (10 mM, pH 7) to acquire a 10.00 ml solution. The mixtures were stirred for half an hour prior to taking their spectra.\nComplexation of the water-soluble AIE TPEs 3 and 4 with calf thymus DNA (ctDNA) and bovine serum albumin (BSA) were investigated by spectrometric titrations in aqueous phosphate buffer (pH=7.0) at 25 C. Stock solutions of TPEs 3 and 4 (0.25 mM) were prepared."}, "HG21 DNA": {"tested_on": "HG21 DNA", "assay": "CD spectra: G-quadruplex induction by TPE derivatives", "format": "biochemical", "conditions": "9 μM DNA, 4.5 μM TPE derivative, Tris-HCl pH 7.5, 25 °C", "procedure": "[TPE]=4.5 μM; [HG21]=9 μM and [K^+]=0.5 M.\nCD spectral profiles of 9 μM DNA in 5 mM Tris-HCl buffer solutions (pH 7.5) incubated under 25° C. with four different TPE derivatives at 4.5 μM or with 0.5M K^+ ions are studied (FIG. 77). TPE derivatives 1-4 are TTAPE (Example 6), TPE-2 (chemical structure is not shown herein), TPE-3 (chemical structure is not shown herein) and TPE-C2N+ (Example 3), respectively. […] On the other hand, DNA incubated with TTAPE or the known quadruplex inducer; K^+ ions have very similar spectral profiles, while the ellipticities of DNA/TTAPE are somehow weaker than DNA/K^+."}, "calf thymus DNA (ctDNA)": {"tested_on": "calf thymus DNA (ctDNA)", "assay": "Fluorimetric titration of ctDNA to polyenes", "format": "binding", "conditions": "for Relative affinity to ctDNA versus BSA: phosphate buffer pH 7, dye 2.5 μM", "procedure": "as §1, §2\nComplexation of the water-soluble AIE TPEs 3 and 4 with calf thymus DNA (ctDNA) and bovine serum albumin (BSA) were investigated by spectrometric titrations in aqueous phosphate buffer (pH=7.0) at 25 C. Stock solutions of TPEs 3 and 4 (0.25 mM) were prepared. The mixture of 100 μl stock solution of 3 with 9.9 ml buffer emits faintly at 395 nm with a side band at 462 nm. Its absorption maximum locates at 311 nm, with a molar absorptivity of 12400M^−1 cm^−1. Upon addition of the DNA, FL intensity of TPE 3 increased by 5.4 fold. Meanwhile its emission maximum shifted to ˜462 nm, giving a Stokes shift as large as 134 nm. In the DNA concentration range of 0-100 μg/ml^−1, the plot of the FL intensity (1) at 462 nm as a function of DNA concentration (c) is a linear line with a correlation coefficient of 0.996. Addition of BSA to a buffer solution of TPE 3 induced a similar effect. The linear range of the I/IO−1 vs. c plot in this case is 0-50 μg/ml^−1. The excitation maximums of the solutions of TPE3 containing BSA and ctDNA both locate at 328 nm."}, "[5]": {"conditions": "aggregate: 99% water/AN for TPE-OMe and TPE-OH, 99% AN/water for TPE-SO3"}, "[6]": {"conditions": "solution: acetonitrile for TPE-OMe and TPE-OH (10 μM), water for TPE-SO3 (5 μM)"}}, "note": "Read-outs that look alike come from different tables or passages of the source."}
{"compound": "Coomassie Brilliant Blue", "values": [{"measurement": "Staining reaction (soaking) time", "setting": "HSA", "result": "more than 6 hours"}]}
{"compound": "BrCCOc1ccc(C(=C(c2ccc(OCCBr)cc2)c2ccc(OCCBr)cc2)c2ccc(OCCBr)cc2)cc1", "note": "[TBEPE, 1,1,2,2-tetrakis[4-(2-bromoethoxy}phenyl]ethene]", "values": [{"measurement": "Increase of ΦF at 99% water versus AN solution", "setting": "[1]", "result": "~35", "unit": "fold"}, {"measurement": "Fluorescence quantum yield (ΦF), molecularly dissolved", "setting": "[1]", "result": 0.5, "unit": "%"}, {"measurement": "Fluorescence quantum yield (ΦF), aggregated", "setting": "[1]", "result": 18, "unit": "%"}, {"measurement": "Solubility in water", "setting": "Solubility", "result": "totally insoluble in water"}]}
{"compound": "CC[N+](CC)(CC)CCCCOc1ccc(C(=C(c2ccc(OCCCC[N+](CC)(CC)CC)cc2)c2ccc(OCCCC[N+](CC)(CC)CC)cc2)c2ccc(OCCCC[N+](CC)(CC)CC)cc2)cc1.[Br-].[Br-].[Br-].[Br-]", "note": "[N+C4-TPE-C4N^+, N,N′,N″,N′″-[1,2-Tetrakis(1,4-phenoxybutyl)vinyl)tetrakis(triethylammonium bromide)]", "values": [{"measurement": "Variety of FL in presence of DNA and RNA compared with TPE-C2N+ and TPE-C4N+", "setting": "[2]", "result": "much larger variety of FL"}]}
{"compound": "COc1ccc(C(=C(c2ccccc2)c2ccc(OC)cc2)c2ccccc2)cc1", "note": "[TPE-OMe, 1,2-Bis(4-methoxyphenyl)-1,2diphenylethene]", "values": [{"measurement": "ΦE (quantum yield), aggr", "setting": "[3]; [5]", "result": 15.30, "unit": "%"}, {"measurement": "λab (absorption maximum), aggr", "setting": "[3]; [5]", "result": 330, "unit": "nm"}, {"measurement": "Emission maximum wavelength (λem)", "setting": "[3]; [5]", "result": 477, "unit": "nm"}, {"measurement": "ΦE (quantum yield), soln", "setting": "[3]; [6]", "result": 0.11, "unit": "%"}, {"measurement": "λab (absorption maximum), soln", "setting": "[3]; [6]", "result": 311, "unit": "nm"}, {"measurement": "Emission maximum wavelength (λem)", "setting": "[3]; [6]", "result": 394, "unit": "nm"}]}
{"compound": "O=C(O)c1ccc(/C(=C(\\c2ccccc2)c2ccc(C(=O)O)cc2)c2ccccc2)cc1", "note": "[TPE-COOH, 4,4′-(1,2-diphenylvinyl)di(phenylcarboxylic acid)]", "values": [{"measurement": "Solubility in water", "setting": "Solubility", "result": "insoluble"}]}
{"compound": "CC[N+](CC)(CC)CCOc1ccc(/C(=C(\\c2ccccc2)c2ccc(OCC[N+](CC)(CC)CC)cc2)c2ccccc2)cc1.[Br-].[Br-]", "note": "[TPE-C2N^+, N,N′-[1,2-Diphenyl-1,2-bis(1,4-phenoxyethyl)vinyl]bis(triethylammonium bromide)]", "values": [{"measurement": "Linear range of FL intensity vs BSA concentration", "setting": "[4]", "result": "0-50 μg/ml^−1"}, {"measurement": "G-quadruplex induction (CD spectral profile)", "setting": "HG21 DNA", "result": "spectral profile comparable to the negative control"}, {"measurement": "Linear range of FL intensity vs DNA concentration", "setting": "calf thymus DNA (ctDNA)", "result": "0-100 μg/ml^−1"}, {"measurement": "FL intensity increase upon addition of DNA", "setting": "calf thymus DNA (ctDNA); phosphate buffer pH 7.0, 25 C", "result": 5.4, "unit": "fold"}, {"measurement": "Relative affinity to ctDNA versus BSA", "setting": "calf thymus DNA (ctDNA)", "result": "better affinity to ctDNA than BSA"}, {"measurement": "Solubility in water", "setting": "Solubility", "result": "soluble in water"}]}
{"compound": "BrCCOc1ccc(C(=C(c2ccccc2)c2ccc(OCCBr)cc2)c2ccccc2)cc1", "note": "[TPE 1, 1,2-Bis[4-(2-bromoethoxy)phenyl]-1,2-diphenylethene]", "values": [{"measurement": "Increase of fluorescent intensity at 476 nm, AN solution to AN-water (1:99) suspension", "setting": "[1]", "result": 240, "unit": "fold"}, {"measurement": "Increase of ΦF at 99% water versus AN solution", "setting": "[1]", "result": "~40", "unit": "fold"}, {"measurement": "Fluorescence quantum yield (ΦF), molecularly dissolved", "setting": "[1]", "result": "~0.5", "unit": "%"}, {"measurement": "Fluorescence quantum yield (ΦF), aggregated", "setting": "[1]", "result": "~20", "unit": "%"}, {"measurement": "Solubility in water", "setting": "Solubility", "result": "insoluble in water"}]}
{"compound": "Oc1ccc(/C(=C(\\c2ccccc2)c2ccc(O)cc2)c2ccccc2)cc1", "note": "[TPE-OH, 1,2-Bis(4-hydroxyphenyl)-1,2-diphenylethylene]", "values": [{"measurement": "ΦE (quantum yield), aggr", "setting": "[3]; [5]", "result": 8.90, "unit": "%"}, {"measurement": "λab (absorption maximum), aggr", "setting": "[3]; [5]", "result": 316, "unit": "nm"}, {"measurement": "Emission maximum wavelength (λem)", "setting": "[3]; [5]", "result": 439, "unit": "nm"}, {"measurement": "ΦE (quantum yield), soln", "setting": "[3]; [6]", "result": 0.57, "unit": "%"}, {"measurement": "λab (absorption maximum), soln", "setting": "[3]; [6]", "result": 312, "unit": "nm"}, {"measurement": "Emission maximum wavelength (λem)", "setting": "[3]; [6]", "result": 393, "unit": "nm"}, {"measurement": "ΦE (quantum yield), bind", "setting": "[4]; BSA solution of TPE-OH•Na2 or TPE-SO3 in aqueous phosphate buffer pH 7.0", "result": 35.7, "unit": "%"}, {"measurement": "λex (emission maximum), bind", "setting": "[4]; BSA solution of TPE-OH•Na2 or TPE-SO3 in aqueous phosphate buffer pH 7.0, excitation 350 nm", "result": 467, "unit": "nm"}, {"measurement": "Linear range of FL intensity vs BSA concentration", "setting": "[4]; aqueous phosphate buffer pH 7.0", "result": "0 to 10", "unit": "µg/mL"}]}
{"compound": "CC[N+](CC)(CC)CCCCOc1ccc(/C(=C(\\c2ccccc2)c2ccc(OCCCC[N+](CC)(CC)CC)cc2)c2ccccc2)cc1.[Br-].[Br-]", "note": "[TPE-C4N^+, N,N′-[1,2-Diphenyl-1,2-bis(1,4-phenoxybutyl)vinyl]bis(triethylammonium bromide)]", "values": [{"measurement": "Linear range of FL intensity vs BSA concentration", "setting": "[4]", "result": "0-40 μg/ml^−1"}, {"measurement": "I/Io", "setting": "[4]; 500 μg/ml BSA added", "result": 23.8}, {"measurement": "Linear range of FL intensity vs DNA concentration", "setting": "calf thymus DNA (ctDNA)", "result": "0-20 μg/ml^−1"}, {"measurement": "I/Io", "setting": "calf thymus DNA (ctDNA); 300 μg/ml ct DNA added", "result": 16.3}, {"measurement": "Relative affinity to ctDNA versus BSA", "setting": "calf thymus DNA (ctDNA)", "result": "gives the opposite result"}, {"measurement": "Solubility in water", "setting": "Solubility", "result": "soluble in water"}]}
